Experimental data from US9980943B2, “Methods of treating muscular dystrophy” (BOARD OF REGENTS OF THE NEVADA SYSTEM OF HIGHER EDUCATION, …, priority 2013, dated 2018).

Legend:
Format in all cases: cell-based, mouse
[1] = test system: α7 integrin (LacZ reporter in α7+/LacZ myotubes); experiment: Myotube α7 integrin FDG assay (Burkin assay in myotubes, 96-well); conditions: myotubes
[2] = test system: α7 integrin (LacZ reporter in α7βgal+/− myoblasts); experiment: Myoblast α7+/LacZ integrin FDG assay (Burkin assay in myoblasts, 96-well); conditions: α7+/LacZ myoblasts, 96-well
[3] = test system: β-galactosidase in CMV-LacZ C2C12 myoblasts; experiment: CMV-LacZ secondary screen in C2C12 myoblasts (β-Gal stabilizing assay); conditions: CMV-LacZ C2C12 myoblasts
Procedure, shortened: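 Dose-response runs at 0.5–40 μM (0.5, 1, 5, 10, 20, 40 μM; N=2 per point) used a clonal C2C12 line carrying CMV-LacZ. Cells were assayed as myoblasts or as differentiated myotubes, and β-galactosidase levels were read with the FDG fluorogenic substrate.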

[4] = test system: β-galactosidase in CMV-LacZ C2C12 myotubes; experiment: CMV-LacZ secondary screen in C2C12 myotubes (β-Gal stabilizing assay); conditions: C2C12 CMV-LacZ myotubes, fold relative to DMSO
Procedure, shortened: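 β-Gal level was the read-out, measured in a clonal C2C12 line expressing LacZ from a CMV promoter. Dose-response curves used six concentrations, 0.5 μM up to 40 μM, with duplicate points.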

| Structure (SMILES) | Burkin Assay in Myotubes, α7 integrin LacZ reporter signal relative to DMSO ([1]; 0.5 uM) | Burkin Assay in Myotubes, α7 integrin LacZ reporter signal relative to DMSO ([1]; 1 uM) | Burkin Assay in Myotubes, α7 integrin LacZ reporter signal relative to DMSO ([1]; 5 uM) | Burkin Assay in Myotubes, α7 integrin LacZ reporter signal relative to DMSO ([1]; 10 uM) | Burkin Assay in Myotubes, α7 integrin LacZ reporter signal relative to DMSO ([1]; 20 uM) | Burkin Assay in Myotubes, α7 integrin LacZ reporter signal relative to DMSO ([1]; 40 uM) | Burkin Assay in Myoblasts, signal relative to DMSO ([2]; 0.5 uM) | Burkin Assay in Myoblasts, signal relative to DMSO ([2]; 1 uM) | Burkin Assay in Myoblasts, signal relative to DMSO ([2]; 5 uM) | Burkin Assay in Myoblasts, signal relative to DMSO ([2]; 10 uM) | Burkin Assay in Myoblasts, signal relative to DMSO ([2]; 20 uM) | Burkin Assay in Myoblasts, signal relative to DMSO ([2]; 40 uM) | CMV-LACZ in Myoblasts (β-galactosidase activity relative to DMSO) ([3]; 0.5 uM) | CMV-LACZ in Myoblasts (β-galactosidase activity relative to DMSO) ([3]; 1 uM) | CMV-LACZ in Myoblasts (β-galactosidase activity relative to DMSO) ([3]; 5 uM) | CMV-LACZ in Myoblasts (β-galactosidase activity relative to DMSO) ([3]; 10 uM) | CMV-LACZ in Myoblasts (β-galactosidase activity relative to DMSO) ([3]; 20 uM) | CMV-LACZ in Myoblasts (β-galactosidase activity relative to DMSO) ([3]; 40 uM) | CMV-LACZ in Myotubes, signal relative to DMSO ([4]; 0.5 uM) | CMV-LACZ in Myotubes, signal relative to DMSO ([4]; 1 uM) | further results |
| --- | --- | --- | --- | --- | --- | --- | --- | --- | --- | --- | --- | --- | --- | --- | --- | --- | --- | --- | --- | --- | --- |
| CCNC(=O)C(=O)Nc1cc2c3c(c1)CCN3C(=O)CC2 [MLS001167798-01] | 1.051 | 0.9243 | 1.118 | 0.9382 | 0.7983 | 0.7231 | 1.058 | 1.166 | 1.277 | 1.064 | 1.051 | 1.006 | 1.0342 | 0.7750 | 1.1822 | 1.1494 | 1.2196 | 1.1452 | 0.9143 | 0.9295 | CMV-LACZ in Myotubes, signal relative to DMSO ([4]; 5 uM): 1.1987; CMV-LACZ in Myotubes, signal relative to DMSO ([4]; 10 uM): 1.2238; CMV-LACZ in Myotubes, signal relative to DMSO ([4]; 20 uM): 1.3337; CMV-LACZ in Myotubes, signal relative to DMSO ([4]; 40 uM): 1.2800 |
| CCN(C(=O)c1ccc(S(=O)(=O)N(C)C)cc1)C(C)C(=O)Nc1ccc(C)cc1 (stereo not drawn) [MLS001170856-01] | 0.8296 | 0.7436 | 0.91 | 1.064 | 0.7763 | 1.029 | 0.95 | 0.8651 | 0.9744 | 1.244 | 0.9217 | 0.7133 | 0.7337 | 0.9857 | 0.7938 | 1.0004 | 0.8881 | 0.8389 | 1.1095 | 0.9105 | CMV-LACZ in Myotubes, signal relative to DMSO ([4]; 5 uM): 1.0074; CMV-LACZ in Myotubes, signal relative to DMSO ([4]; 10 uM): 1.0562; CMV-LACZ in Myotubes, signal relative to DMSO ([4]; 20 uM): 1.1518; CMV-LACZ in Myotubes, signal relative to DMSO ([4]; 40 uM): 0.8753 |
| Cc1ccsc1CN(C)CC(=O)Nc1ccc([N+](=O)[O-])cc1Cl [MLS001172822-01] | 0.9496 | 0.9315 | 0.8513 | 0.861 | 0.8466 | 0.7858 | 1.233 | 1.351 | 0.9662 | 0.9014 | 0.987 | 0.9597 | 0.9304 | 1.0617 | 1.1375 | 1.0904 | 0.9285 | 1.2767 | 1.2590 | 1.0514 | CMV-LACZ in Myotubes, signal relative to DMSO ([4]; 5 uM): 1.2505; CMV-LACZ in Myotubes, signal relative to DMSO ([4]; 10 uM): 1.1819; CMV-LACZ in Myotubes, signal relative to DMSO ([4]; 20 uM): 1.1768; CMV-LACZ in Myotubes, signal relative to DMSO ([4]; 40 uM): 0.6358 |
